Source: patent US11406640B2, “JAK1 pathway inhibitors for the treatment of chronic lung allograft dysfunction” (Incyte Corporation, priority 2019, dated 2022)

Legend:
[1] = molecular target: human JAK1 (Homo sapiens, UniProt P23458); assay: In vitro JAK kinase assay (Example A), JAK1; format: biochemical; conditions: 1 mM ATP
From the text: In some embodiments, the JAK1 pathway inhibitor is a compound of Table 2, or a pharmaceutically acceptable salt thereof.

[2] = molecular target: human JAK2 (Homo sapiens (Human), UniProt O60674); assay: In vitro JAK kinase assay (Example A), JAK2; format: biochemical; conditions: JAK2/JAK1 IC50 ratio, 1 mM ATP
Chain of human JAK2 (O60674 828-1132): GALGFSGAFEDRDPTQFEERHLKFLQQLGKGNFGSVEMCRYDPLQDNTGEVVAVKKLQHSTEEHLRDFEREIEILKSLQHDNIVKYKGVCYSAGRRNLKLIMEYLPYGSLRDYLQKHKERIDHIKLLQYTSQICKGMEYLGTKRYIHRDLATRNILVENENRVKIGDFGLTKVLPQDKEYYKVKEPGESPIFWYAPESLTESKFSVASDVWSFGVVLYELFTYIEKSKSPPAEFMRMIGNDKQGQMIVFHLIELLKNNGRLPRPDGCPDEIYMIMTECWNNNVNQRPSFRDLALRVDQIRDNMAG
Method: The compounds in Table 2 were tested in this assay and shown to have the IC50 values in Table 2.

[3] = tested on: patients with BOS after lung transplantation; conditions: cited from earlier work

Structure (SMILES) | IC50 [1] [nM] | JAK2/JAK1 [2] | effect on lung function decline ([3]; overall cohort, 30 patients randomized vs placebo) | decline of FEV1 ([3]; post-hoc subanalysis of BOS grade 1 patients, absolute and predicted FEV1)
C[C@@H](O)c1nc2cnc3ccsc3c2n1[C@H]1CC[C@H](CC#N)OC1 [Compound 5, ((2R,5S)-5-{2-[(1R)-1-hydroxyethyl]-1H-imidazo[4,5-d]thieno[3,2-b]pyridin-1-yl}tetrahydro-2H-pyran-2-yl)acetonitrile] | < 100 | >10 |  | 
CC(C)(O)c1ccccc1CC[C@@H](SCC1(CC(=O)O)CC1)c1cccc(/C=C/c2ccc3ccc(Cl)cc3n2)c1 [Montelukast] |  |  | no effect on lung function decline | attenuated further decline of FEV1
N#CCC(C1CCN(c2nc3cccnc3o2)C1)n1cc(-c2ncnc3[nH]ccc23)cn1 (centres unmarked) [Compound 7, 3-(1-[1,3]oxazolo[5,4-b]pyridin-2-ylpyrrolidin-3-yl)-3-[4-(7H-pyrrolo[2,3-d]pyrimidin-4-yl)-1H-pyrazol-1-yl]propanenitrile] | < 10 | >10 |  | 
N#CCC(C1CCN(c2cccc(Cl)n2)C1)n1cc(-c2ncnc3[nH]ccc23)cn1 (single isomer, unassigned) [Compound 6, 3-[1-(6-chloropyridin-2-yl)pyrrolidin-3-yl]-3-[4-(7H-pyrrolo[2,3-d]pyrimidin-4-yl)-1H-pyrazol-1-yl]propanenitrile] | < 10 | >10 |  | 
N#CCC1(n2cc(-c3ncnc4[nH]ccc34)cn2)CN(C2CCN(C(=O)c3ccnc(C(F)(F)F)n3)CC2)C1 [Compound 3, [3-[4-(7H-pyrrolo[2,3-d]pyrimidin-4-yl)-1H-pyrazol-1-yl]-1-(1-{[2-(trifluoromethyl)pyrimidin-4-yl]carbonyl}piperidin-4-yl)azetidin-3-yl]acetonitrile] | < 10 | >10 |  | 
N#CCC(CN1CCN(C(=O)c2ccc(C#N)cc2F)CC1)n1cc(-c2ncnc3[nH]ccc23)cn1 (centres unmarked) [Compound 8, 4-[(4-{3-cyano-2-[4-(7H-pyrrolo[2,3-d]pyrimidin-4-yl)-1H-pyrazol-1-yl]propyl}piperazin-1-yl)carbonyl]-3-fluorobenzonitrile] | < 10 | >10 |  | 
N#CC[C@]1(n2cc(-c3ncnc4[nH]ccc34)cn2)C[C@H](N2CCN(C(=O)c3ccnc(C(F)(F)F)n3)CC2)C1 [Compound 10, [trans-1-[4-(7H-pyrrolo[2,3-d]pyrimidin-4-yl)-1H-pyrazol-1-yl]-3-(4-{[2-(trifluoromethyl)pyrimidin-4-yl]carbonyl}piperazin-1-yl)cyclobutyl]acetonitrile] | < 10 | >10 |  | 
N#CCC(CN1CCN(C(=O)c2ccc(C#N)cc2F)CC1)n1ccc(-c2ncnc3[nH]ccc23)c1 (centres unmarked) [Compound 9, 4-[(4-{3-cyano-2-[3-(7H-pyrrolo[2,3-d]pyrimidin-4-yl)-1H-pyrrol-1-yl]propyl}piperazin-1-yl)carbonyl]-3-fluorobenzonitrile] | < 10 | >10 |  | 
N#CCC1(n2cc(-c3ncnc4[nH]ccc34)cn2)CN(C2CCN(C(=O)Nc3ccc(F)cc3C(F)(F)F)CC2)C1 [Compound 2, 4-{3-(Cyanomethyl)-3-[4-(7H-pyrrolo[2,3-d]pyrimidin-4-yl)-1H-pyrazol-1-yl]azetidin-1-yl}-N-[4-fluoro-2-(trifluoromethyl)phenyl] piperidine-1-carboxamide] | < 10 | >10 |  | 

Continued, in another order:

IC50 [1] [nM] | JAK2/JAK1 [2] | Structure (SMILES) | effect on lung function decline ([3]; overall cohort, 30 patients randomized vs placebo) | decline of FEV1 ([3]; post-hoc subanalysis of BOS grade 1 patients, absolute and predicted FEV1)
< 10 | >10 | CCNCc1cc(O[C@H]2CC[C@@H](N3CC(CC#N)(n4cc(-c5ncnc6[nH]ccc56)cn4)C3)CC2)nc(C(F)(F)F)c1 [Compound 19, {1-(cis-4-{[4-[(ethylamino)methyl]-6-(trifluoromethyl)pyridin-2-yl]oxy}cyclohexyl)-3-[4-(7H-pyrrolo[2,3-d]pyrimidin-4-yl)-1H-pyrazol-1-yl]azetidin-3-yl}acetonitrile] |  | 
< 10 | >10 | CC(C)(O)c1cc(O[C@H]2CC[C@@H](N3CC(CC#N)(n4cc(-c5ncnc6[nH]ccc56)cn4)C3)CC2)nc(C(F)(F)F)c1 [Compound 20, {1-(cis-4-{[4-(1-hydroxy-1-methylethyl)-6-(trifluoromethyl)pyridin-2-yl]oxy}cyclohexyl)-3-[4-(7H-pyrrolo[2,3-d]pyrimidin-4-yl)-1H-pyrazol-1-yl]azetidin-3-yl}acetonitrile] |  | 
< 10 | >10 | C[C@@H](O)CNCc1cc(OC2CCN([C@H]3C[C@](CC#N)(n4cc(-c5ncnc6[nH]ccc56)cn4)C3)CC2)nc(C(F)(F)F)c1 [Compound 24, {trans-3-(4-{[4-({[(2R)-2-hydroxypropyl]amino}methyl)-6-(trifluoromethyl)pyridin-2-yl]oxy}piperidin-1-yl)-1-[4-(7H-pyrrolo[2,3-d]pyrimidin-4-yl)-1H-pyrazol-1-yl]cyclobutyl}acetonitrile] |  | 
< 10 | >10 | C[C@H](NC(=O)c1cc(F)c(N2CC(CC#N)(n3cc(-c4ncnc5[nH]ccc45)cn3)C2)cc1F)C(F)(F)F [Compound 16, 4-{3-(cyanomethyl)-3-[4-(7H-pyrrolo[2,3-d]pyrimidin-4-yl)-1H-pyrazol-1-yl]azetidin-1-yl}-2,5-difluoro-N-[(1S)-2,2,2-trifluoro-1-methylethyl]benzamide] |  | 
< 10 | >10 | N#CC[C@]1(n2cc(-c3ncnc4[nH]ccc34)cn2)C[C@H](N2CCC(Oc3cc(CN4CCC[C@@H]4CO)cc(C(F)(F)F)n3)CC2)C1 [Compound 13, {trans-3-(4-{[4-{[(2R)-2-(hydroxymethyl)pyrrolidin-1-yl]methyl}-6-(trifluoromethyl)pyridin-2-yl]oxy}piperidin-1-yl)-1-[4-(7H-pyrrolo[2,3-d]pyrimidin-4-yl)-1H-pyrazol-1-yl]cyclobutyl}acetonitrile] |  | 
< 10 | >10 | N#CCC1(n2cc(-c3ncnc4[nH]ccc34)cn2)CN([C@H]2CC[C@@H](Oc3cc(CCO)nc(C(F)(F)F)n3)CC2)C1 [Compound 18, {1-(cis-4-{[6-(2-hydroxyethyl)-2-(trifluoromethyl)pyrimidin-4-yl]oxy}cyclohexyl)-3-[4-(7H-pyrrolo[2,3-d]pyrimidin-4-yl)-1H-pyrazol-1-yl]azetidin-3-yl}acetonitrile] |  | 
< 10 | >10 | N#CCC1(n2cc(-c3ncnc4[nH]ccc34)cn2)CN([C@H]2CC[C@@H](Oc3cc(CN4CC[C@H](O)C4)cc(C(F)(F)F)n3)CC2)C1 [Compound 22, {1-(cis-4-{[4-{[(3S)-3-hydroxypyrrolidin-1-yl]methyl}-6-(trifluoromethyl)pyridin-2-yl]oxy}cyclohexyl)-3-[4-(7H-pyrrolo[2,3-d]pyrimidin-4-yl)-1H-pyrazol-1-yl]azetidin-3-yl}acetonitrile] |  | 
< 10 | >10 | N#CC[C@]1(n2cc(-c3ncnc4[nH]ccc34)cn2)C[C@H](N2CCC(Oc3cc(CCO)cc(C(F)(F)F)n3)CC2)C1 [Compound 26, {trans-3-(4-{[4-(2-hydroxyethyl)-6-(trifluoromethyl)pyridin-2-yl]oxy}piperidin-1-yl)-1-[4-(7H-pyrrolo[2,3-d]pyrimidin-4-yl)-1H-pyrazol-1-yl]cyclobutyl}acetonitrile] |  | 
< 10 | >10 | N#CCC1(n2cc(-c3ncnc4[nH]ccc34)cn2)CN([C@H]2CC[C@@H](Oc3cc(CN4CC[C@@H](O)C4)cc(C(F)(F)F)n3)CC2)C1 [Compound 21, {1-(cis-4-{[4-{[(3R)-3-hydroxypyrrolidin-1-yl]methyl}-6-(trifluoromethyl)pyridin-2-yl]oxy}cyclohexyl)-3-[4-(7H-pyrrolo[2,3-d]pyrimidin-4-yl)-1H-pyrazol-1-yl]azetidin-3-yl}acetonitrile] |  | 
< 10 | >10 | C[C@H](O)CNCc1cc(OC2CCN([C@H]3C[C@](CC#N)(n4cc(-c5ncnc6[nH]ccc56)cn4)C3)CC2)nc(C(F)(F)F)c1 [Compound 25, {trans-3-(4-{[4-({[(2S)-2-hydroxypropyl]amino}methyl)-6-(trifluoromethyl)pyridin-2-yl]oxy}piperidin-1-yl)-1-[4-(7H-pyrrolo[2,3-d]pyrimidin-4-yl)-1H-pyrazol-1-yl]cyclobutyl}acetonitrile] |  | 
< 10 | >10 | N#CC[C@]1(n2cc(-c3ncnc4[nH]ccc34)cn2)C[C@H](N2CCC(Oc3cc(CN4CCC[C@H]4CO)cc(C(F)(F)F)n3)CC2)C1 [Compound 12, {trans-3-(4-{[4-{[(2S)-2-(hydroxymethyl)pyrrolidin-1-yl]methyl}-6-(trifluoromethyl)pyridin-2-yl]oxy}piperidin-1-yl)-1-[4-(7H-pyrrolo[2,3-d]pyrimidin-4-yl)-1H-pyrazol-1-yl]cyclobutyl}acetonitrile] |  | 
< 10 | >10 | C[C@@H](CO)NCc1cc(OC2CCN([C@H]3C[C@](CC#N)(n4cc(-c5ncnc6[nH]ccc56)cn4)C3)CC2)nc(C(F)(F)F)c1 [Compound 23, {trans-3-(4-{[4-({[(1S)-2-hydroxy-1-methylethyl]amino}methyl)-6-(trifluoromethyl)pyridin-2-yl]oxy}piperidin-1-yl)-1-[4-(7H-pyrrolo[2,3-d]pyrimidin-4-yl)-1H-pyrazol-1-yl]cyclobutyl}acetonitrile] |  | 
< 10 | >10 | N#CC[C@]1(n2cc(-c3ncnc4[nH]ccc34)cn2)C[C@H](N2CCC(Oc3cc(CN4CC(O)C4)cc(C(F)(F)F)n3)CC2)C1 [Compound 11, {trans-3-(4-{[4-[(3-hydroxyazetidin-1-yl)methyl]-6-(trifluoromethyl)pyridin-2-yl]oxy}piperidin-1-yl)-1-[4-(7H-pyrrolo[2,3-d]pyrimidin-4-yl)-1H-pyrazol-1-yl]cyclobutyl}acetonitrile] |  | 
